Patent US9884863B2, “STAT3 inhibitor” (Board of Regents, The University of Texas System, priority 2013, dated 2018)
Read-outs that look alike come from different tables or passages of the source.

What was measured:
MCF-7 = experiment: MTS cell proliferation assay, MCF-7; assay type: cell-based, human; conditions: Homo sapiens, MCF7
Experimental: Cancer cells (breast cancer cell lines MCF-7, MDA-MB-361, SKBR3 and MDA-MB-231, pancreatic cancer cell lines AsPC-1. […] Proliferation was measured by treating cells with the 3-(4,5-dimethylthiazol-2-yl)-5-(3-carboxymethoxyphenyl)-2-(4-sulfophenyl)-2H-tetrazolium) (MTS) in a CellTiter 96t AQueous Non-Radioactive Cell Proliferation Assay kit from Promega, Madison, Wis., USA). Absorbance of all wells was determined by measuring OD at 550 nm after 1 hr incubation at 37° C. on a 96-well iMark™ Microplate Absorbance Reader (BioRad, Hercules, Calif.). Each individual compound was tested in quadruplicate wells for each concentration, and the results were reported as mean absorption±s.e.
In Vitro Determination of Effects of Synthesized Compounds on Cancer Cell Proliferation. Cancer cells (breast cancer cell lines MCF-7 and MDA-MB-231, pancreatic cancer cell lines AsPC-1 and Panc-1) were […], 0.01, 0.1, 1, 5, 10, […] Proliferation was measured by treating cells with the 3-(4,5-dimethylthiazol-2-yl)-5-(3-carboxymethoxyphenyl)-2-(4-sulfophenyl)-2H-tetrazolium) (MTS) in a CellTiter 96t Aqueous Non-Radioactive Cell Proliferation Assay kit (Promega, Madison, Wis., USA). Absorbance of all wells was determined by measuring OD at 550 nm after 1 h incubation at 37° C. on a 96-well iMark™ Microplate Absorbance Reader (BioRad, Hercules, Calif.). Each individual compound was tested in quadruplicate wells for each concentration.

Panc-1 = experiment: MTS cell proliferation assay, Panc-1; assay type: cell-based, human; conditions: Homo sapiens, PANC-1
Experimental: (§1) Cancer cells (breast cancer cell lines MCF-7, MDA-MB-361, SKBR3 and MDA-MB-231, pancreatic cancer cell lines AsPC-1. BxPC3 and Panc-1) were seeded in 96-well plates at a density of 1000-2000 cells/well and treated with DMSO, 0.01, 0.1, 1, 5, 10, and […] of STAT3 individual inhibitors for 72 hrs. Proliferation was measured by treating cells with the 3-(4,5-dimethylthiazol-2-yl)-5-(3-carboxymethoxyphenyl)-2-(4-sulfophenyl)-2H-tetrazolium) (MTS) in a CellTiter 96t AQueous Non-Radioactive Cell Proliferation Assay kit from Promega, Madison, Wis., USA). Absorbance of all wells was determined by measuring OD at 550 nm after 1 hr incubation at 37° C. on a 96-well iMark™ Microplate Absorbance Reader (BioRad, Hercules, Calif.). Each individual compound was tested in quadruplicate wells for each concentration, and the results were reported as mean absorption±s.e.
(§2) In Vitro Determination of Effects of Synthesized Compounds on Cancer Cell Proliferation. Cancer cells (breast cancer cell lines MCF-7 and MDA-MB-231, pancreatic cancer cell lines AsPC-1 and Panc-1) were seeded in 96-well plates at a density of 2×10^3 cells/well and treated with DMSO, 0.01, 0.1, 1, 5, 10, and 100 μM of individual STAT3 inhibitors for 72 h. Proliferation was measured by treating cells with the 3-(4,5-dimethylthiazol-2-yl)-5-(3-carboxymethoxyphenyl)-2-(4-sulfophenyl)-2H-tetrazolium) (MTS) in a CellTiter 96t Aqueous Non-Radioactive Cell Proliferation Assay kit (Promega, Madison, Wis., USA). Absorbance of all wells was determined by measuring OD at 550 nm after 1 h incubation at 37° C. on a 96-well iMark™ Microplate Absorbance Reader (BioRad, Hercules, Calif.). Each individual compound was tested in quadruplicate wells for each concentration.

MDA-MB-231 = experiment: MTS cell proliferation assay, MDA-MB-231; assay type: cell-based, human; conditions: Homo sapiens, MDA-MB-231, >10 = no effect
Experimental: as §1, with “Calif.).” for “Calif.). Each individual compound was tested in quadruplicate wells for each concentration, and the results were reported as mean absorption±s.e.”
as §2, with “concentration. […]” for “concentration.”

AsPC1 = experiment: MTS cell proliferation assay, AsPC1; assay type: cell-based, human; conditions: Homo sapiens, ASPC1
Experimental: as §1, §2

[1] = Example 4 numbering, 72 h, >10 = no effect, read-out: IC50 MCF-7 (Table 4)
[2] = Example 4 numbering, 72 h, >10 = no effect, read-out: IC50 Panc-1 (Table 4)
[3] = Example 4 numbering, 72 h, read-out: IC50 MDA-MB-231 (Table 4)
[4] = Example 4 numbering, 72 h, >10 = no effect, read-out: IC50 AsPC1 (Table 4)

`O=C(Nc1ccc2c(c1)S(=O)(=O)C=C2)c1cc(Cl)ccc1O` [Compd 12] gave an IC50 (MCF-7; [1]) of 910 nM, an IC50 (Panc-1; [2]) of 2340 nM and an IC50 (MDA-MB-231; [3]) of 1640 nM. For the same compound, the IC50 (AsPC1; [4]) was 1920 nM.

With `O=C(Nc1ccc2c(c1)S(=O)(=O)C=C2)c1cc(Cl)ccc1O` [Compound 1] the IC50 (MCF-7; Table 2 numbering 1-14, >10 = no effect, read-out: IC50 MCF-7 (Table 2)) was 910 nM, the IC50 (Panc-1; Table 2 numbering 1-14, read-out: IC50 Panc-1 (Table 2)) was 2340 nM and the IC50 (MDA-MB-231; Table 2 numbering 1-14, read-out: IC50 MDA-MB-231 (Table 2)) was 1640 nM. For the same compound, the IC50 (AsPC1; Table 2 numbering 1-14, read-out: IC50 AsPC1 (Table 2)) was 1920 nM.

Work on `C[C@H](NC(=O)c1cc(-c2ccccc2)nc2ccccc12)c1ccccc1` [Compound 8] yielded an IC50 (MCF-7; [1]) of 2240 nM, an IC50 (Panc-1; [2]) greater than 10000 nM and an IC50 (MDA-MB-231; [3]) of 86000 nM. For the same compound, the IC50 (AsPC1; [4]) was greater than 10000 nM.

Compound `C[C@H](NC(=O)c1cc(Cl)ccc1O)c1ccccc1` [Compound 9] has an IC50 (MCF-7; [1]) of 900 nM, an IC50 (MCF-7; Example 4 numbering, read-out: IC50 MCF-7 (Example 4)) of 900 nM and an IC50 (Panc-1; [2]) of 8440 nM. It also gave an IC50 (MDA-MB-231; [3]) of 8880 nM and an IC50 (AsPC1; [4]) of 7540 nM.

For `N#C/C(=C\c1cccc(Br)n1)C(=O)Nc1ccc2c(c1)S(=O)(=O)C=C2` [Compound 10], the IC50 (MCF-7; [1]) was 3310 nM, the IC50 (Panc-1; [2]) was 1640 nM and the IC50 (MDA-MB-231; [3]) was 1530 nM. It also gave an IC50 (AsPC1; [4]) of 1540 nM.

In the case of `CN(C)c1ccc(/C=C(\C#N)C(=O)Nc2ccc3c(c2)S(=O)(=O)C=C3)cc1` [RMF-1-16, 2-Cyano-3-(4-dimethylaminophenyl)-N-(1,1-dioxo-1H-1λ^6-benzo[b]thiophen-6-yl)acrylamide], the melting point is reported as 279 to 280 °C.

Work on `N#C/C(=C\c1c[nH]c2ncccc12)C(=O)Nc1ccc2c(c1)S(=O)(=O)C=C2` [RMF-1-17, 2-Cyano-N-(1,1-dioxo-1H-1λ^6-benzo[b]thiophen-6-yl)-3-(1H-pyrrolo[2,3-b]pyridin-3-yl)acrylamide] yielded a melting point of 300 to 301 °C.

Compound `N#C/C(=C\C1CCCCC1)C(=O)Nc1ccc2c(c1)S(=O)(=O)C=C2` [RMF-1-20, 2-Cyano-3-cyclohexyl-N-(1,1-dioxo-1H-1λ^6-benzo[b]thiophen-6-yl)acrylamide] has a melting point of 180 to 181 °C.

For `N#C/C(=C\c1cccnc1)C(=O)Nc1ccc2c(c1)S(=O)(=O)C=C2` [RMF-1-22, 2-Cyano-N-(1,1-dioxo-1H-1λ^6-benzo[b]thiophen-6-yl)-3-pyridin-3-yl-acrylamide], the melting point was 255 to 256 °C.

For `N#C/C(=C\c1ccncc1)C(=O)Nc1ccc2c(c1)S(=O)(=O)C=C2` [RMF-1-23, 2-Cyano-N-(1,1-dioxo-1H-1λ^6-benzo[b]thiophen-6-yl)-3-pyridin-4-yl-acrylamide], the melting point was 288 to 289 °C.

Work on `N#C/C(=C\c1cccnc1F)C(=O)Nc1ccc2c(c1)S(=O)(=O)C=C2` [RMF-1-24, 2-Cyano-N-(1,1-dioxo-1H-1λ^6-benzo[b]thiophen-6-yl)-3-(2-fluoro-pyridin-3-yl)acrylamide] yielded a melting point of 262 to 263 °C.

`N#C/C(=C\c1cccnc1Cl)C(=O)Nc1ccc2c(c1)S(=O)(=O)C=C2` [RMF-1-25, 3-(2-Chloro-pyridin-3-yl)-2-cyano-N-(1,1-dioxo-1H-1λ^6-benzo[b]thiophen-6-yl)acrylamide] gave a melting point of 251 to 252 °C.

Compound `N#C/C(=C\c1cccnc1Br)C(=O)Nc1ccc2c(c1)S(=O)(=O)C=C2` [RMF-1-26, 3-(2-Bromopyridin-3-yl)-2-cyano-N-(1,1-dioxo-1H-1λ^6-benzo[b]thiophen-6-yl)acrylamide] has a melting point of 242 to 243 °C.

For `COc1ncccc1/C=C(\C#N)C(=O)Nc1ccc2c(c1)S(=O)(=O)C=C2` [RMF-1-27, 2-Cyano-N-(1,1-dioxo-1H-1λ^6-benzo[b]thiophen-6-yl)-3-(2-methoxy-pyridin-3-yl)acrylamide], the melting point was 261 to 262 °C.

`COc1ccc(/C=C(\C#N)C(=O)Nc2ccc3c(c2)S(=O)(=O)C=C3)cn1` [RMF-1-28, 2-Cyano-N-(1,1-dioxo-1H-1λ^6-benzo[b]thiophen-6-yl)-3-(6-methoxy-pyridin-3-yl)acrylamide] showed a melting point of 255 to 256 °C.

In the case of `N#C/C(=C\c1ccc(F)cc1)C(=O)Nc1ccc2c(c1)S(=O)(=O)C=C2` [RMF-1-29, 2-Cyano-N-(1,1-dioxo-1H-1λ^6-benzo[b]thiophen-6-yl)-3-(4-fluorophenyl)acrylamide], the melting point is reported as 271 to 272 °C.

With `N#C/C(=C\c1cccc(F)c1)C(=O)Nc1ccc2c(c1)S(=O)(=O)C=C2` [RMF-1-31, 2-Cyano-N-(1,1-dioxo-1H-1λ^6-benzo[b]thiophen-6-yl)-3-(3-fluorophenyl)acrylamide] the melting point was 245 to 246 °C.

In the case of `N#C/C(=C\c1cccc(Br)c1)C(=O)Nc1ccc2c(c1)S(=O)(=O)C=C2` [RMF-1-32, 3-(3-Bromophenyl)-2-cyano-N-(1,1-dioxo-1H-1λ^6-benzo[b]thiophen-6-yl)acrylamide], the melting point is reported as 250 to 251 °C.

`N#C/C(=C\c1ccccc1Cl)C(=O)Nc1ccc2c(c1)S(=O)(=O)C=C2` [RMF-1-33, 3-(2-Chlorophenyl)-2-cyano-N-(1,1-dioxo-1H-1λ^6-benzo[b]thiophen-6-yl)acrylamide] showed a melting point of 242 to 243 °C.

With `COc1cccc(/C=C(\C#N)C(=O)Nc2ccc3c(c2)S(=O)(=O)C=C3)c1` [RMF-1-35, 2-Cyano-N-(1,1-dioxo-1H-1λ^6-benzo[b]thiophen-6-yl)-3-(3-methoxyphenyl)acrylamide] the melting point was 245 to 246 °C.

In the case of `N#C/C(=C\c1ccccc1[N+](=O)[O-])C(=O)Nc1ccc2c(c1)S(=O)(=O)C=C2` [RMF-1-36, 2-Cyano-N-(1,1-dioxo-1H-1λ^6-benzo[b]thiophen-6-yl)-3-(2-nitrophenyl)acrylamide], the melting point is reported as 254 to 255 °C.

Compound `N#C/C(=C\c1ccc([N+](=O)[O-])cc1)C(=O)Nc1ccc2c(c1)S(=O)(=O)C=C2` [RMF-1-37, 2-Cyano-N-(1,1-dioxo-1H-1λ^6-benzo[b]thiophen-6-yl)-3-(4-nitrophenyl)acrylamide] has a melting point of 272 to 273 °C.

In the case of `COc1cc(/C=C(\C#N)C(=O)Nc2ccc3c(c2)S(=O)(=O)C=C3)cc(OC)c1OC` [RMF-1-38, 2-Cyano-N-(1,1-dioxo-1H-1λ^6-benzo[b]thiophen-6-yl)-3-(3,4,5-trimethoxyphenyl)acrylamide], the melting point is reported as 224 to 225 °C.
